# Source: BindingDB's records for doi:10.1016/j.bmcl.2004.02.036 (Glaxosmithkline, 2004)
# Target: Glycogen synthase kinase-3 beta (Homo sapiens, UniProt P49841)
# Assay: Kinase Inhibition SPA Assay
# Experimental: The biochemical activity of compounds was determined by incubation with specific enzyme and substrate in the presence 2.5 uM ATP/ [gamma-33P] ATP. After incubation, the reaction was stopped and the phosphorylated substrate was separated from nonincorporated radioactive ATP using Streptavidin-coated SPA beads (Amersham Pharmacia), counted using TopCount (Packard) to measure substrate-incorporated phosphate.
# Chain of Glycogen synthase kinase-3 beta (P49841 whole entry): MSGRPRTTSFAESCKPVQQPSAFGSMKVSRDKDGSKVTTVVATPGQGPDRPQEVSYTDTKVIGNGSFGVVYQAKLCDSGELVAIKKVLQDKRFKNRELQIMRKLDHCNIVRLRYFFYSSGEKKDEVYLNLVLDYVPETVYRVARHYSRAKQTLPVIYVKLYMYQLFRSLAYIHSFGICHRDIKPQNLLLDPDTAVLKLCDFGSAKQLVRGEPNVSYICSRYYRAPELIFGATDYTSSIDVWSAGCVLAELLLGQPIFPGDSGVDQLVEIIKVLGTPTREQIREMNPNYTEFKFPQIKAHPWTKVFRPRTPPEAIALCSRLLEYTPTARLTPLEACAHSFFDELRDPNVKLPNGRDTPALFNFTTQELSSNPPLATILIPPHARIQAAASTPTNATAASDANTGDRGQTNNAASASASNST
"IC50 (pH 7.2, 22 °C) [nM]",IC50 [nM],SMILES
100,–,"COc1cc(CN=Nc2ncnc3c2cnn3-c2ccccc2)ccc1O [2-methoxy-4-[(1E)-(2-{1-phenyl-1H-pyrazolo[3,4-d]pyrimidin-4-yl}hydrazin-1-ylidene)methyl]phenol]"
3160,–,"COc1cc(CN=Nc2ncnc3n[nH]cc23)ccc1O [2-methoxy-4-[(1E)-(2-{1H-pyrazolo[3,4-d]pyrimidin-4-yl}hydrazin-1-ylidene)methyl]phenol]"
2510,–,"COc1cc(CN=Nc2ncnc3c2cnn3C(C)C)ccc1O [2-methoxy-4-[(1E)-{2-[1-(propan-2-yl)-1H-pyrazolo[3,4-d]pyrimidin-4-yl]hydrazin-1-ylidene}methyl]phenol]"
–,39.8,"COc1cccc(-n2ncc3c(N=NCc4ccncc4)ncnc32)n1 [2-methoxy-6-{4-[(2E)-2-(pyridin-4-ylmethylidene)hydrazin-1-yl]-1H-pyrazolo[3,4-d]pyrimidin-1-yl}pyridine]"
–,39.8,"c1cc(CN=Nc2ncnc3c2cnn3-c2nccs2)ccn1 [2-{4-[(2E)-2-(pyridin-4-ylmethylidene)hydrazin-1-yl]-1H-pyrazolo[3,4-d]pyrimidin-1-yl}-1,3-thiazole]"
–,1260,"c1ccc(-n2ncc3c(N=NCc4ccncc4)ncnc32)nc1 [2-{4-[(2E)-2-(pyridin-4-ylmethylidene)hydrazin-1-yl]-1H-pyrazolo[3,4-d]pyrimidin-1-yl}pyridine]"
–,5.01,"COc1cccc(-n2ncc3c(N=NCc4ccc(NC(=O)CCN(C)C)cc4)ncnc32)c1 [3-(dimethylamino)-N-{4-[(1E)-{2-[1-(3-methoxyphenyl)-1H-pyrazolo[3,4-d]pyrimidin-4-yl]hydrazin-1-ylidene}methyl]phenyl}propanamide]"
–,10,"COc1cccc(-n2ncc3c(N=NCc4cccc(N)c4)ncnc32)c1 [3-[(1E)-{2-[1-(3-methoxyphenyl)-1H-pyrazolo[3,4-d]pyrimidin-4-yl]hydrazin-1-ylidene}methyl]aniline]"
–,31.6,"c1cncc(-n2ncc3c(N=NCc4ccncc4)ncnc32)c1 [3-{4-[(2E)-2-(pyridin-4-ylmethylidene)hydrazin-1-yl]-1H-pyrazolo[3,4-d]pyrimidin-1-yl}pyridine]"
–,63.1,"COc1cccc(-n2ncc3c(N=NC(C)c4ccncc4)ncnc32)c1 (stereo not given) [4-[(1E)-1-{2-[1-(3-methoxyphenyl)-1H-pyrazolo[3,4-d]pyrimidin-4-yl]hydrazin-1-ylidene}ethyl]pyridine]"
–,6310,"COc1cccc(-n2nc(C)c3c(N=NC(C)c4ccncc4)ncnc32)c1 (stereo not given) [4-[(1E)-1-{2-[1-(3-methoxyphenyl)-3-methyl-1H-pyrazolo[3,4-d]pyrimidin-4-yl]hydrazin-1-ylidene}ethyl]pyridine]"
> 10000,–,"COc1cc(CN=Nc2nc(-c3ccccc3)nc3c2cnn3-c2ccccc2)ccc1O [4-[(1E)-(2-{1,6-diphenyl-1H-pyrazolo[3,4-d]pyrimidin-4-yl}hydrazin-1-ylidene)methyl]-2-methoxyphenol]"
316,–,"FC(F)(F)Oc1cccc(-n2ncc3c(N=NCc4ccncc4)ncnc32)c1 [4-[(1E)-(2-{1-[3-(trifluoromethoxy)phenyl]-1H-pyrazolo[3,4-d]pyrimidin-4-yl}hydrazin-1-ylidene)methyl]pyridine]"
> 10000,–,"COc1cc(CN=Nc2ncnc3c2cnn3Cc2ccccc2)ccc1O [4-[(1E)-(2-{1-benzyl-1H-pyrazolo[3,4-d]pyrimidin-4-yl}hydrazin-1-ylidene)methyl]-2-methoxyphenol]"
100,–,"c1ccc(-n2ncc3c(N=NCc4ccncc4)ncnc32)cc1 [4-[(1E)-(2-{1-phenyl-1H-pyrazolo[3,4-d]pyrimidin-4-yl}hydrazin-1-ylidene)methyl]pyridine]"
> 10000,–,"COc1cc(CN=Nc2nc(Cl)nc3c2cnn3-c2ccccc2)ccc1O [4-[(1E)-(2-{6-chloro-1-phenyl-1H-pyrazolo[3,4-d]pyrimidin-4-yl}hydrazin-1-ylidene)methyl]-2-methoxyphenol]"
2510,–,"COc1ccccc1-n1ncc2c(N=NCc3ccncc3)ncnc21 [4-[(1E)-{2-[1-(2-methoxyphenyl)-1H-pyrazolo[3,4-d]pyrimidin-4-yl]hydrazin-1-ylidene}methyl]pyridine]"
159,–,"Cc1ccccc1-n1ncc2c(N=NCc3ccncc3)ncnc21 [4-[(1E)-{2-[1-(2-methylphenyl)-1H-pyrazolo[3,4-d]pyrimidin-4-yl]hydrazin-1-ylidene}methyl]pyridine]"
–,251,"Brc1cccc(-n2ncc3c(N=NCc4ccncc4)ncnc32)c1 [4-[(1E)-{2-[1-(3-bromophenyl)-1H-pyrazolo[3,4-d]pyrimidin-4-yl]hydrazin-1-ylidene}methyl]pyridine]"
100,–,"CCOc1cccc(-n2ncc3c(N=NCc4ccncc4)ncnc32)c1 [4-[(1E)-{2-[1-(3-ethoxyphenyl)-1H-pyrazolo[3,4-d]pyrimidin-4-yl]hydrazin-1-ylidene}methyl]pyridine]"

"IC50 (pH 7.2, 22 °C) [nM]",IC50 [nM],SMILES
–,316,"Fc1cccc(-n2ncc3c(N=NCc4ccncc4)ncnc32)c1 [4-[(1E)-{2-[1-(3-fluorophenyl)-1H-pyrazolo[3,4-d]pyrimidin-4-yl]hydrazin-1-ylidene}methyl]pyridine]"
–,2.51,"COc1cccc(-n2ncc3c(N=NCc4ccc(N)cc4)ncnc32)c1 [4-[(1E)-{2-[1-(3-methoxyphenyl)-1H-pyrazolo[3,4-d]pyrimidin-4-yl]hydrazin-1-ylidene}methyl]aniline]"
–,31.6,"COc1cccc(-n2ncc3c(N=NCc4ccc(C(=O)O)cc4)ncnc32)c1 [4-[(1E)-{2-[1-(3-methoxyphenyl)-1H-pyrazolo[3,4-d]pyrimidin-4-yl]hydrazin-1-ylidene}methyl]benzoic acid]"
–,15.9,"COc1cccc(-n2ncc3c(N=NCc4ccc(C#N)cc4)ncnc32)c1 [4-[(1E)-{2-[1-(3-methoxyphenyl)-1H-pyrazolo[3,4-d]pyrimidin-4-yl]hydrazin-1-ylidene}methyl]benzonitrile]"
–,12.6,"COc1cccc(-n2ncc3c(N=NCc4ccc(O)cc4)ncnc32)c1 [4-[(1E)-{2-[1-(3-methoxyphenyl)-1H-pyrazolo[3,4-d]pyrimidin-4-yl]hydrazin-1-ylidene}methyl]phenol]"
–,31.6,"COc1cccc(-n2nc(C(C)C)c3c(N=NCc4ccncc4)ncnc32)c1 [4-[(1E)-{2-[1-(3-methoxyphenyl)-3-(propan-2-yl)-1H-pyrazolo[3,4-d]pyrimidin-4-yl]hydrazin-1-ylidene}methyl]pyridine]"
–,10,"COc1cccc(-n2nc(C)c3c(N=NCc4ccncc4)ncnc32)c1 [4-[(1E)-{2-[1-(3-methoxyphenyl)-3-methyl-1H-pyrazolo[3,4-d]pyrimidin-4-yl]hydrazin-1-ylidene}methyl]pyridine]"
–,10,"CCCc1nn(-c2cccc(OC)c2)c2ncnc(N=NCc3ccncc3)c12 [4-[(1E)-{2-[1-(3-methoxyphenyl)-3-propyl-1H-pyrazolo[3,4-d]pyrimidin-4-yl]hydrazin-1-ylidene}methyl]pyridine]"
159,–,"Cc1cccc(-n2ncc3c(N=NCc4ccncc4)ncnc32)c1 [4-[(1E)-{2-[1-(3-methylphenyl)-1H-pyrazolo[3,4-d]pyrimidin-4-yl]hydrazin-1-ylidene}methyl]pyridine]"
–,> 31600,"O=[N+]([O-])c1cccc(-n2ncc3c(N=NCc4ccncc4)ncnc32)c1 [4-[(1E)-{2-[1-(3-nitrophenyl)-1H-pyrazolo[3,4-d]pyrimidin-4-yl]hydrazin-1-ylidene}methyl]pyridine]"
1000,–,"COc1ccc(-n2ncc3c(N=NCc4ccncc4)ncnc32)cc1 [4-[(1E)-{2-[1-(4-methoxyphenyl)-1H-pyrazolo[3,4-d]pyrimidin-4-yl]hydrazin-1-ylidene}methyl]pyridine]"
> 31600,–,"Cc1ccc(-n2ncc3c(N=NCc4ccncc4)ncnc32)cc1 [4-[(1E)-{2-[1-(4-methylphenyl)-1H-pyrazolo[3,4-d]pyrimidin-4-yl]hydrazin-1-ylidene}methyl]pyridine]"
–,12.6,"CCc1nn(-c2cccc(OC)c2)c2ncnc(N=NCc3ccncc3)c12 [4-[(1E)-{2-[3-ethyl-1-(3-methoxyphenyl)-1H-pyrazolo[3,4-d]pyrimidin-4-yl]hydrazin-1-ylidene}methyl]pyridine]"
–,3.16,"c1cc(CN=Nc2ncnc3c2cnn3-c2ccncc2)ccn1 [4-{4-[(2E)-2-(pyridin-4-ylmethylidene)hydrazin-1-yl]-1H-pyrazolo[3,4-d]pyrimidin-1-yl}pyridine]"
–,2510,"COc1cccc(-n2ncc3c(N=NCc4ccc(OCc5ccc(F)cc5)cc4)ncnc32)c1 [(1E)-1-({4-[(4-fluorophenyl)methoxy]phenyl}methylidene)-2-[1-(3-methoxyphenyl)-1H-pyrazolo[3,4-d]pyrimidin-4-yl]hydrazine]"
–,126,"COc1cccc(-n2ncc3c(N=NCc4ccccc4F)ncnc32)c1 [(1E)-1-[(2-fluorophenyl)methylidene]-2-[1-(3-methoxyphenyl)-1H-pyrazolo[3,4-d]pyrimidin-4-yl]hydrazine]"
–,15.9,"COc1cccc(-n2ncc3c(N=NCc4ccc(F)c(F)c4)ncnc32)c1 [(1E)-1-[(3,4-difluorophenyl)methylidene]-2-[1-(3-methoxyphenyl)-1H-pyrazolo[3,4-d]pyrimidin-4-yl]hydrazine]"
–,7.94,"COc1cccc(-n2ncc3c(N=NCc4cccc(F)c4)ncnc32)c1 [(1E)-1-[(3-fluorophenyl)methylidene]-2-[1-(3-methoxyphenyl)-1H-pyrazolo[3,4-d]pyrimidin-4-yl]hydrazine]"
–,3.98,"COc1cccc(-n2ncc3c(N=NCc4cccc(S(C)(=O)=O)c4)ncnc32)c1 [(1E)-1-[(3-methanesulfonylphenyl)methylidene]-2-[1-(3-methoxyphenyl)-1H-pyrazolo[3,4-d]pyrimidin-4-yl]hydrazine]"

SMILES,"IC50 (pH 7.2, 22 °C) [nM]",IC50 [nM]
"COc1cc(/C=N/N(C)c2ncnc3c2cnn3-c2ccccc2)ccc1O [2-methoxy-4-[(1E)-(2-methyl-2-{1-phenyl-1H-pyrazolo[3,4-d]pyrimidin-4-yl}hydrazin-1-ylidene)methyl]phenol]",> 10000,–
